{"source": "patent US12065435B2", "about": "“Compounds for the treatment of glycogen storage disorders” (HADASIT MEDICAL RESEARCH SERVICES AND DEVELOPMENT LTD., priority 2017, dated 2024)", "key": {"[1]": {"system": "APBD modeling mice (Gbe^Y329S/Y329S mouse model)", "test": "Motor parameters in APBD modeling mice", "format": "in vivo", "conditions": "for ameliorating effect on motor parameters (summary): tested every two weeks", "description": "This study was conducted in compounds A and B according to the schemes described in Tables 8 and 9, respectively.\nAs vehicle control, 0.1% DMSO was used. It is noteworthy that, in order to have a statistically significant number of animals, compound A was tested in male mice and compound B in female mice (no mixed cages were allowed).\nAPBD is an autosomal disease with no gender related symptoms and it was presumed that this experimental design is optimal. The mode of delivery of the compounds was intravenous (IV) injection for the first month, followed by subcutaneous injection due to lack of injection space and scaring in animal tails.\nTables 8 and 9 describe the study design for compounds A and B. both compounds were tested at the age of 4 months, two months prior to disease onset, in order to assess possible prophylactic effects, and at the age of 6 months, at disease onset, in order to assess corrective effects.\nThe effect of compounds A and B on various motor parameters was tested every two weeks. The results are shown in herein.\nThe point of reference is one time point prior to treatment initiation. Please note, since animals first treated with the compounds at 6 months of age were not injected at all before that age, they could not have been compared to animals pre-injected with vehicle. Therefore, the duration of the longitudinal studies for the cohorts first treated at the age of 6 months is shorter than that of the animals first treated at 4 months of age."}, "[2]": {"system": "polyglucosan body (PB) in APBD patient-derived fibroblasts", "test": "High content (image-based) PAS screening assay for polyglucosan bodies", "format": "cell-based, human", "conditions": "0, 1, 5, 10 and 50 μM", "description": "All the steps of the assay were performed automatically using a Freedom Evo 150 liquid handling robot (Tecan). APBD patient-derived fibroblasts were seeded at a density of 800 cells/well in DMEM (Gibco) supplemented with 1 mM sodium pyruvate (Gibco), 1% antibiotics (Biological Industries, Israel) and 5% fetal bovine serum (Hyclone) into 384 well microclear plates (Greiner). The plates were transferred by the robotic arm (RoMa) into an automated incubator (Liconic), integrated with the robotic system, where they were incubated at 37° C. with 5% CO2. Following 24 h incubation, the medium was replaced by the robot using medium supplemented with 10 μM of each screened compound (0.1% DMSO final concentration, all prepared by the robot). The screened compounds were part of the Diverset CL collection purchased from ChemBridge (10,084 out of 50,000 molecules).\nNext, these cells were cultured for another 24 h in the automated incubator, and, using the robot, washed them with PBS (Biological Industries, Israel), the cells were fixed with 4% paraformaldehyde (PFA), washed again with PBS, neutralized the previously added PFA by ammonium chloride (Sigma Aldrich), washed with PBS, permeabilized with 0.1% Triton X-100 (Sigma Aldrich), and washed again with PBS.\nFollowing this, a robot was used to treat the fixed cells with 0.5 g/dl diastase (or amylase, Sigma Aldrich) for 5 minutes at 37° C. in the automated incubator, wash with PBS, stained with PAS (Merck), Hoechst 33342 (Sigma Aldrich) and Cell Mask Deep Red (Molecular Probes) and wash with PBS. Images of stained cells were then acquired by the IN Cell Analyzer 2000 (GE Healthcare) and analyzed using the IN Cell Investigator (GE Healthcare) applying an algorithm that quantified the PAS signal within each Cell Mask stained cell.\nImages were segmented based on the Cell Mask signal which was linked with the segmentation of the nuclei, employing an empirically established sensitivity and kernel size for allowing the best segmentation. Once these nucleus-cytoplasm complex objects were selected, the software calculated the number of these objects (cell number) as well as the intensity of the PAS signal within each of them. All the assay parameters (including the acquisition exposure times, objective, and the analysis parameters) were kept constant throughout the whole screening campaign for allowing comparison of signals obtained from different batches of assay within the campaign.\nThe assay was performed as mentioned above, but with compound concentrations of 1, 5, 10, and 50 μM, instead of a constant concentration of 10 μM.\nThe discarded data was presumably associated with cells affected by toxic compounds. In the remaining data, the measured population mean PB intensity was normalized. Based on a series of images used for training, compounds were considered as positive only where following treatment the normalized PB mean intensity was at least under −1.2 z-score of the scale. Following this approach, 85 potential hits out of the 10,084 screened compounds were selected (0.84%)."}, "APBD skin fibroblasts": {"system": "APBD skin fibroblasts", "test": "Multi-parametric cell-phenotypic characterization of APBD skin fibroblasts", "format": "cell-based, human", "conditions": "APBD fibroblasts treated with compound", "description": "FIG. 10 presents a graph showing multi-parametric cell-phenotypic characterization of healthy control (HC) and APBD skin fibroblasts. Upper panel: the extent of deviation from healthy control of the cell features shown, ordered by the amount of deviation (-log (P value)). […] The different comparisons analyzed are shown at the bottom of the panel.\nNext, the multi-parametric analysis of compound A, one of the compounds tested in the Gbe^Y329S/Y329S mouse model for APBD was completed. The different cell features in APBD fibroblasts of several patients were ordered according to the extent of their deviation from the same features in healthy fibroblasts."}, "APBD mice": {"system": "APBD mice", "conditions": "mouse, in vivo"}, "[3]": {"conditions": "treated from 4 months of age (2 months before onset), two way ANOVA with repeated measures"}, "[4]": {"conditions": "treated from 4 months of age, Bonferroni's multiple comparisons test"}, "[5]": {"conditions": "treated from 6 months of age (at onset), two way ANOVA with repeated measures"}, "[6]": {"conditions": "treated from 6 months of age, Bonferroni's multiple comparisons test"}}}
{"smiles": "COCCN(Cc1sccc1C)C(=O)c1cc(C)[nH]c(=O)c1", "note": "[UDP #4, N-(2-methoxyethyl)-6-methyl-N-[(3-methyl-2-thienyl)methyl]-2-oxo-1,2-dihydropyridine-4-carboxamide]", "values": [{"measurement": "apathy, mobility and responsiveness to experimenter", "setting": "[1]; 250 mg/kg, IV first month then subcutaneous", "result": "less apathic, more mobile and more responsive to intervention by the experimenter"}, {"measurement": "ameliorating effect on motor parameters (summary)", "setting": "[1]; 250 mg/kg, IV first month then subcutaneous, listed as Compound A", "result": "ameliorate extension reflex, grip strength and gait"}, {"measurement": "ameliorating effect on motor parameters (summary)", "setting": "[1]; 250 mg/kg, IV first month then subcutaneous, listed as compound A", "result": "improves the uniformity of step alteration"}, {"measurement": "average duration in movement in an open field test vs vehicle", "setting": "[1]; [3]", "result": "not different from vehicle (p<0.1)"}, {"measurement": "average front paw grip strength vs vehicle", "setting": "[1]; [3]", "result": "not different from vehicle (p<0.1)"}, {"measurement": "average gait length vs vehicle", "setting": "[1]; [3]", "result": "not different from vehicle (p<0.1)"}, {"measurement": "average gait width vs vehicle", "setting": "[1]; [3]", "result": "not different from vehicle (p<0.1)"}, {"measurement": "average latency to fall off a metal wire vs vehicle", "setting": "[1]; [3]", "result": "not different from vehicle (p<0.1)"}, {"measurement": "average latency to fall off a rotating cylinder (rotarod) vs vehicle", "setting": "[1]; [3]", "result": "not different from vehicle (p<0.1)"}, {"measurement": "average regularity of step distance (Coefficient of Variance of all R-R and L-L step distances) vs vehicle", "setting": "[1]; [3]", "result": "significantly different from vehicle (p<0.01)"}, {"measurement": "average uniformity of step alternation (|0.5-(R-L/R-R)|) vs vehicle", "setting": "[1]; [3]", "result": "not different from vehicle (p<0.1)"}, {"measurement": "extension reflex vs vehicle", "setting": "[1]; [3]", "result": "different from vehicle with p<0.09"}, {"measurement": "average duration in movement in an open field test vs vehicle", "setting": "[1]; [4]", "result": "no significant difference"}, {"measurement": "average front paw grip strength vs vehicle", "setting": "[1]; [4]", "result": "a significant difference (p<0.05) between vehicle and treatment at 32 days after initiation of treatment"}, {"measurement": "average gait length vs vehicle", "setting": "[1]; [4]", "result": "no significant difference"}, {"measurement": "average gait width vs vehicle", "setting": "[1]; [4]", "result": "no significant difference"}, {"measurement": "average latency to fall off a metal wire vs vehicle", "setting": "[1]; [4]", "result": "no significant difference"}, {"measurement": "average latency to fall off a rotating cylinder (rotarod) vs vehicle", "setting": "[1]; [4]", "result": "no significant difference"}, {"measurement": "average regularity of step distance vs vehicle", "setting": "[1]; [4]", "result": "a significant difference (p<0.05) between vehicle and treatment at 81 days after treatments initiation"}, {"measurement": "average uniformity of step alternation vs vehicle", "setting": "[1]; [4]", "result": "a significant difference (p<0.05) between vehicle and treatment 95 days after treatment initiation"}, {"measurement": "extension reflex vs vehicle", "setting": "[1]; [4]", "result": "no significant difference"}, {"measurement": "average duration in movement in an open field test vs vehicle", "setting": "[1]; [5]", "result": "not different from vehicle (p<0.1)"}, {"measurement": "average front paw grip strength vs vehicle", "setting": "[1]; [5]", "result": "different from vehicle with p<0.055"}, {"measurement": "average gait length vs vehicle", "setting": "[1]; [5]", "result": "not different from vehicle (p<0.1)"}, {"measurement": "average gait width vs vehicle", "setting": "[1]; [5]", "result": "not different from vehicle (p<0.1)"}, {"measurement": "average latency to fall off a metal wire vs vehicle", "setting": "[1]; [5]", "result": "not different from vehicle (p<0.1)"}, {"measurement": "average latency to fall off a rotating cylinder (rotarod) vs vehicle", "setting": "[1]; [5]", "result": "not different from vehicle (p<0.1)"}, {"measurement": "average regularity of step distance vs vehicle", "setting": "[1]; [5]", "result": "not different from vehicle (p<0.1)"}, {"measurement": "average uniformity of step alternation (|0.5-(R-L/R-R)|) vs vehicle", "setting": "[1]; [5]", "result": "significantly different from vehicle (p<0.06)"}, {"measurement": "extension reflex vs vehicle", "setting": "[1]; [5]", "result": "not different from vehicle (p<0.1)"}, {"measurement": "average duration in movement in an open field test vs vehicle", "setting": "[1]; [6]", "result": "no significant difference"}, {"measurement": "average front paw grip strength vs vehicle", "setting": "[1]; [6]", "result": "no significant difference"}, {"measurement": "average gait length vs vehicle", "setting": "[1]; [6]", "result": "no significant difference"}, {"measurement": "average gait width vs vehicle", "setting": "[1]; [6]", "result": "no significant difference"}, {"measurement": "average latency to fall off a metal wire vs vehicle", "setting": "[1]; [6]", "result": "no significant difference"}, {"measurement": "average latency to fall off a rotating cylinder (rotarod) vs vehicle", "setting": "[1]; [6]", "result": "no significant difference"}, {"measurement": "average regularity of step distance vs vehicle", "setting": "[1]; [6]", "result": "no significant difference"}, {"measurement": "average uniformity of step alternation vs vehicle", "setting": "[1]; [6]", "result": "a significant difference (p<0.05) between vehicle and treatment 95 days after treatment initiation"}, {"measurement": "extension reflex vs vehicle", "setting": "[1]; [6]", "result": "no significant difference"}, {"measurement": "dose response of diastase resistant cell associated mean PAS intensity normalized by z-score", "setting": "[2]", "result": "lowered mean normalized PAS intensity in a non-dose responding manner"}, {"measurement": "area of respiring (TMRE labeled) mitochondria", "setting": "APBD skin fibroblasts", "result": "decreased"}, {"measurement": "nuclear intensity", "setting": "APBD skin fibroblasts", "result": "increased"}]}
{"smiles": "CO[C@H]1C[C@@H]2CC[C@@H](C)[C@@](O)(O2)C(=O)C(=O)N2CCCC[C@H]2C(=O)O[C@H]([C@H](C)C[C@@H]2CC[C@@H](O)[C@H](OC)C2)CC(=O)[C@H](C)/C=C(\\C)[C@@H](O)[C@@H](OC)C(=O)[C@H](C)C[C@H](C)/C=C/C=C/C=C/1C", "note": "[rapamycin]", "values": [{"measurement": "toxic effects in APBD mice", "setting": "APBD mice", "result": "toxic effects"}]}
